The source of these data is patent US20190364896A1, “SYNERGISTIC WEED CONTROL FROM APPLICATIONS OF PYRIDINE CARBOXYLIC ACID HERBICIDES AND ALS INHIBITORS” (Dow AgroSciences LLC, priority 2014, published 2019).

Data set [1] relates to nutsedge (Cyperus esculentus, CYPES). Kind of data set: Postemergence herbicidal activity, greenhouse trial (visual injury 0-100%). The note with it: Cyperus, post-emergence, read-out: % visual injury Obs. The format is in vivo. Put shortly:
(§1)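 Greenhouse-grown plants at the second to third true leaf stage were sprayed with two-way mixtures in 1.5% v/v Agri-dex crop oil concentrate at 187 L/ha; rates in g ae/ha for component (a) and g ai/ha for component (b). Injury scored visually 0–100% versus solvent-blank controls after 20–22 d, with expected mixture effects from Colby's equation.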

For data set [2], the system named is kochia (Kochia scoparia, KCHSC). The description is as above. The format is in vivo. Put shortly: (§2)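 Foliar track-sprayer application, 187 L/ha, 2–3 true-leaf plants; spray solution = acetone/DMSO 97:3 stock diluted into 1.5% v/v Agri-dex. Component (a) in g ae/ha, (b) in g ai/ha. Visual rating 0 (no injury)–100 (complete kill) at 20-22 d vs solvent blank.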
The test system of data set [3] is thistle (Cirsium arvense, CIRAR). Described as above. The format is in vivo. The settings on record: Cirsium arvense, post-emergence, read-out: % visual injury Obs. Put shortly:
as §2

For data set [4], the system named is barnyardgrass (Echinochloa crus-galli, ECHCG). Described as above. The format is in vivo. Put shortly:
as §2

Data set [5] relates to common lambsquarters (Chenopodium album L., CHEAL). The data set is described as above. It counts as in vivo. Put shortly:
as §2

The subject of data set [6] is wild pansy (Viola tricolor, VIOTR). The description is as above. The format is in vivo. The note with it: Viola tricolor, post-emergence, VIOTR, read-out: % visual injury Obs. Put shortly: as §2
Data set [7] has as its system spring rape (Brassica napus, BRSNN). The description is as above. The format is in vivo.
Data set [8] deals with poinsettia (Euphorbia heterophylla, EPHHL). The data set is described as above. It counts as in vivo. Put shortly:
as §1

The subject of data set [9] is winter wheat (Triticum aestivum, TRZAW). Kind of data set: Postemergence crop injury (phytotoxicity), greenhouse trial (visual injury 0-100%). How it is done:
(§3) Seeds of the desired test plant species were planted in Sun Gro MetroMix® 306 planting mixture, which typically has a pH of 6.0 to 6.8 and an organic matter content of about 30 percent, in plastic pots with a surface area of 103.2 square centimeters (cm^2). […] The plants were grown for 7-36 days (d) in a greenhouse with an approximate 14-hour (h) photoperiod which was maintained at about 23° C. during the day and 22° C. during the night. Nutrients and water were added on a regular basis and supplemental lighting was provided with overhead metal halide 1000-Watt lamps as necessary. The plants were employed for testing when they reached the second or third true leaf stage.
(§4) Weighed amounts of technical material were dissolved in a volume of 97:3 volume per volume (v/v) acetone/dimethyl sulfoxide (DMSO) to stock solutions. […] The concentrated stock solutions were diluted with an aqueous mixture of 1.5% v/v of Agri-dex crop oil concentrate to provide the appropriate application rates. Compound requirements are based upon a 12 milliliter (mL) application volume at a rate of 187 liters per hectare (L/ha). Spray solutions of the experimental compound mixtures were prepared by adding the stock solutions to the appropriate amount of dilution solution to form a 12 mL spray solution in two-way combinations. Formulated compounds were applied to the plant material with an overhead Mandel track sprayer equipped with 8002E nozzles calibrated to deliver 187 L/ha over an application area of 0.503 square meters (m^2) at a spray height of 18 inches (43 centimeters (cm)) above average plant canopy. Control plants were sprayed in the same manner with the solvent blank. Application rates for component (a) are in g ae/ha, and application rates for component (b) are in g ai/ha.
(§5) The treated plants and control plants were placed in a greenhouse as described above and watered by sub-irrigation to prevent wash-off of the test compounds. After 20-22 d, the condition of the test plants as compared with that of the control plants was determined visually and scored on a scale of 0 to 100 percent where 0 corresponds to no injury and 100 corresponds to complete kill. The condition of the test plants was compared with that of the control plants as determined visually and scored on a scale of 0 to 100 percent, where 0 corresponds to no injury and 100 corresponds to complete kill. Colby's equation was used to determine the herbicidal effects expected from the mixtures.
Compound 2 was combined with florasulam and applied to winter wheat (TRZAW) and the phytotoxicity of the herbicidal composition was measured. In addition, the efficacy of the herbicidal composition on poinsettia (Euphorbia heterophylla, EPHHL) and […] (Cyperus esculentus, CYPES) was evaluated.
Weighed amounts of technical or formulated material (emulsifiable concentrate (EC) or soluble concentrate (SL)) were dissolved in a volume of 97:3 volume per volume (v/v) acetone/dimethyl sulfoxide (DMSO) to stock solutions. […] The concentrated stock solutions were diluted with an aqueous mixture of 1.5% v/v of Agri-dex crop oil concentrate to provide the appropriate application rates. Compound requirements are based upon a 12 milliliter (mL) application volume at a rate of 187 liters per hectare (L/ha). Spray solutions of the experimental compound mixtures were prepared by adding the stock solutions to the appropriate amount of dilution solution to form a 12 mL spray solution in two-way combinations. […]

For data set [10], the system named is pigweed (Amaranthus retroflexus, AMARE). Description: Postemergence herbicidal activity, greenhouse trial (visual injury 0-100%). It counts as in vivo. Put shortly: as §2
Data set [11] has as its system ivyleaf morning-glory (Ipomoea hederacea, IPOHE). Described as above. The format is in vivo. Put shortly: as §2
The subject of data set [12] is common rice (Oryza sativa, ORYSA). Description: Postemergence crop injury (phytotoxicity), greenhouse trial (visual injury 0-100%). Here is the method:
as §3
(§6) Weighed amounts of technical or formulated material (emulsifiable concentrate (EC) or soluble concentrate (SL)) were dissolved in a volume of 97:3 volume per volume (v/v) acetone/dimethyl sulfoxide (DMSO) to stock solutions. […] The concentrated stock solutions were diluted with an aqueous mixture of 1.5% v/v of Agri-dex crop oil concentrate to provide the appropriate application rates. Compound requirements are based upon a 12 milliliter (mL) application volume at a rate of 187 liters per hectare (L/ha). Spray solutions of the experimental compound mixtures were prepared by adding the stock solutions to the appropriate amount of dilution solution to form a 12 mL spray solution in two-way combinations. Formulated compounds were applied to the plant material with an overhead Mandel track sprayer equipped with 8002E nozzles calibrated to deliver 187 L/ha over an application area of 0.503 square meters (m^2) at a spray height of 18 inches (43 centimeters (cm)) above average plant canopy. Control plants were sprayed in the same manner with the solvent blank. Application rates for component (a) are in g ae/ha, and application rates for component (b) are in g ai/ha.
as §5
(§7) Compound 1 was formulated as an EC and was combined with florasulam, cloransulam, diclosulam, flumetsulam, penoxsulam, or pyroxsulam. Compound 2 was formulated as an EC and was combined with florasulam or pyroxsulam. The mixtures were applied to winter wheat (TRZAW), common rice (ORYSA), maize (ZEAMX), and the phytotoxicity of the herbicidal compositions was measured. In addition, the efficacy of the herbicidal compositions on blackgrass (Alopecurus myosuroides, ALOMY), pigweed (Amaranthus retrollexus, AMARE), wild oat (Avena fatua, AVEFA), common lambsquarters (Chenopodium album L., CHEAL), thistle (Cirsium arvense CIRAR), nutsedge (Cyperus esculentus, CYPES), barnyardgrass (Echinochloa crus-galli, ECHCG), poinsettia (Euphorbia heterophylla, EPHHL), ivyleaf morning-glory (Ipomoea hederacea, IPOHE), kochia (Kochia scoparia, KCHSC), wild buckwheat (Polygonum convolvulus, POLCO), grain sorghum (Sorghum vulgare, SORVU), chickweed (Stellaria media, STEME), wild pansy (Viola tricolor, VIOTR), was evaluated.
(§8) Weighed amounts of technical material were dissolved in a volume of 97:3 volume per volume (v/v) acetone/dimethyl sulfoxide (DMSO) to stock solutions. […] The concentrated stock solutions were diluted with an aqueous mixture of 1.5% v/v of Agri-dex crop oil concentrate to provide the appropriate application rates. Compound requirements are based upon a 12 milliliter (mL) application volume at a rate of 187 liters per hectare (L/ha). […]

In data set [13] the test system is maize (Zea mays, ZEAMX). The description is as above. Here is the method:
as §3, §6, §5, §7, §8

Data set [14] concerns wild buckwheat (Polygonum convolvulus, POLCO). Description: Postemergence herbicidal activity, greenhouse trial (visual injury 0-100%). The format is in vivo. The note with it: Fallopia convolvulus, post-emergence, 11.2 g ai/ha; read-out: % visual injury Obs. Put shortly: as §2
In data set [15] the test system is turnip (Brassica rapa, BRSRR). The data set is described as above. The format is in vivo. The note with it: 11.2 g ai/ha. Here is the method:
as §3, §4, §5
(§9) Compound 1 was formulated as an EC and was combined with imazamox, imazamethabenz, imazapic, imazapyr or imazethapyr. The mixtures were applied to winter wheat (TRZAW) and/or maize (ZEAMX), and the phytotoxicity of the herbicidal compositions was measured. In addition, the efficacy of the herbicidal compositions on blackgrass (Alopecurus myosuroides, ALOMY), wild oat (Avena fatua, AVEFA), winter rape (Brassica napus, BRSNW), spring rape (Brassica napus, BRSNN), turnip (Brassica rapa, BRSRR), thistle (Cirsium arvense, CIRAR), large crabgrass (Digitaria sanguinalis, DIGSA), pigweed (Amaranthus retrollexus, AMARE), common lambsquarters (Chenopodium album L., CHEAL), poinsettia (Euphorbia heterophylla, EPHHL), ivyleaf morning-glory (Ipomoea hederacea, IPOHE), kochia (Kochia scoparia, KCHSC), wild buckwheat (Polygonum convolvulus, POLCO), grain sorghum (Sorghum vulgare, SORVU), chickweed (Stellaria media, STEME), wild pansy (Viola tricolor, VIOTR), sunflower (Helianthus annuus, HELAN), giant foxtail (Setaria faberi, SETFA), soybean (Glycine max, GLXMA), rutabaga (Brassica napus var. napobrassica, BRSNA) and barnyardgrass (Echinochloa crus-galli, ECHCG) was evaluated.

In data set [16] the test system is chickweed (Stellaria media, STEME). The description is as above. The format is in vivo. Put shortly: as §2
Data set [17] has as its system winter rape (Brassica napus, BRSNW). Described as above. It counts as in vivo.
The test system of data set [18] is giant foxtail (Setaria faberi, SETFA). Described as above. The format is in vivo. The note with it: SETFA; nicosulfuron 17.5 g ai/ha.
In data set [19] the test system is grain sorghum (Sorghum vulgare, SORVU). The data set is described as above. The format is in vivo. The settings on record: 100 g ai/ha. Put shortly:
as §2

Data set [20] concerns wild oat (Avena fatua, AVEFA). The data set is described as above. It counts as in vivo. The settings on record: 100 g ai/ha. Put shortly:
as §2

Data set [21] concerns soybean (Glycine max, GLXMA). The data set is described as above. The note with it: 100 g ai/ha. The format is in vivo. How it is done: as §3, §4, §5, §9
Data set [22] concerns sunflower (Helianthus annuus, HELAN). Described as above. The format is in vivo. The note with it: 100 g ai/ha.

With `COc1nc(C)nc(NC(=O)NS(=O)(=O)c2ccccc2Cl)n1` [Chlorsulfuron, chlorsulfuron], the pest or weed control is 0% in data set [1] (CYPES, chlorsulfuron 2.2 g ai/ha); 50% in data set [2] (Bassia scoparia, post-emergence, KCHSC, chlorsulfuron 2.2 g ai/ha, read-out: % visual injury Obs); 90% in data set [3] (CIRAR, chlorsulfuron 2.2 g ai/ha); 0% in data set [4] (Echinochloa crus-galli, post-emergence, ECHCG, chlorsulfuron 2.2 g ai/ha, read-out: % visual injury Obs); 90% in data set [5] (Chenopodium album, post-emergence, CHEAL, chlorsulfuron 2.2 g ai/ha, read-out: % visual injury Obs); 60% in [6] (chlorsulfuron 2.2 g ai/ha). Also, the “% visual injury Obs” value in data set [7] (BRSNN, chlorsulfuron 2.2 g ai/ha) came to 93%.

Consider `COc1ncc(F)c2nc(S(=O)(=O)Nc3c(F)cccc3F)nn12` [Florasulam, florasulam], for which the pest or weed control at 1.25 g/ha in [1] is 15%; in data set [8] (Euphorbia heterophylla, post-emergence, read-out: % visual injury Obs), 0%; in data set [10] (Amaranthus retroflexus, post-emergence, read-out: % visual injury Obs) it was 75%; in [5] (Chenopodium album, post-emergence, read-out: % visual injury Obs) it was 0%; in data set [11] (Ipomoea hederacea, post-emergence, read-out: % visual injury Obs), 98%. Besides, the pest or weed control at 2.5 g/ha in data set [1] worked out at 75%; in data set [2] (Bassia scoparia, post-emergence, read-out: % visual injury Obs), 60%. Also, the “% visual injury Obs” value in [9] (1.25 g ai/ha), in [9] (2.5 g ai/ha), in data set [12] (1.25 g ai/ha), in data set [12] (2.5 g ai/ha), in data set [13] (1.25 g ai/ha) and in data set [13] (2.5 g ai/ha) was 0% throughout.

As to `COCc1cnc(C2=NC(C)(C(C)C)C(=O)N2)c(C(=O)O)c1` (stereo not shown) [Imazamox, imazamox], the results for the pest or weed control at 11.2 g/ha in data set [3] (11.2 g ai/ha) and in data set [14] were 70% and 65%, respectively. The “% visual injury Obs” value stood at 75% in data set [7] (11.2 g ai/ha) and 70% in data set [15].

With `COc1cc(OC)nc(NC(=O)NS(=O)(=O)c2ncccc2C(=O)N(C)C)n1` [Nicosulfuron, nicosulfuron], the pest or weed control at 17.5 g/ha was 5% in [2] (Bassia scoparia, post-emergence, KCHSC, nicosulfuron 17.5 g ai/ha, read-out: % visual injury Obs); 30% in [16] (Stellaria media, post-emergence, STEME, nicosulfuron 17.5 g ai/ha, read-out: % visual injury Obs); 30% in data set [11] (Ipomoea hederacea, post-emergence, IPOHE, nicosulfuron 17.5 g ai/ha, read-out: % visual injury Obs); 40% in data set [6] (nicosulfuron 17.5 g ai/ha). The “% visual injury Obs” value in data set [13] (ZEAMX, nicosulfuron 17.5 g ai/ha) is 0%; in [17] (BRSNW, nicosulfuron 17.5 g ai/ha), 85%; in data set [18], 80%.

Regarding imazamethabenz, the “% visual injury Obs” value is reported as 50% in data set [8] (100 g ai/ha); 0% in data set [2] (100 g ai/ha); 0% in data set [10] (100 g ai/ha); 5% in [4] (100 g ai/ha); 10% in data set [16] (100 g ai/ha); 20% in [5] (100 g ai/ha). Further, the “% visual injury Obs” value in [19] amounted to 0%; in data set [11] (100 g ai/ha), 0%; in data set [20], 20%; in data set [21], 30%; in data set [17] (100 g ai/ha), 65%; in [22], 5%.
